{
  "source": "paper PMC8998618",
  "about": "“A Pharmacokinetic and Metabolism Study of the TRPC6 Inhibitor SH045 in Mice by LC-MS/MS” (International Journal of Molecular Sciences, 2022)",
  "key": {"[1]": {"tested_on": "TRPC3/6 channels of rat pulmonary arterial smooth muscle cells (PASMC)", "set-up": "method as in PMID 29522264", "settings": "cited from earlier work"}, "[2]": {"tested_on": "liver, kidney and lung", "test": "histopathological examination of tissue after administration of SH045", "format": "in vivo, mice", "settings": "20 mg/kg BW i.v., single and repeated (5 days); hematoxylin-eosin", "source_text": "Liver, kidney, and lung were collected after repeated administration, fixed and processed for inspection for histopathological alterations (Supplementary Materials SM3).\nLarixyl-N-methylcarbamate ((1S,4S,4aR,8aS)-4-((S)-3-hydroxy-3-methylpent-4-en-1-yl)-4a,8,8-trimethyl-3-methylenedeca-hydro-naphthalen-1-yl methylcarbamate, SH045, TRPC6 inhibitor) was synthesized as described by Häfner et al. [1]. (+)-Larixol (internal standard, IS) was isolated from Larix decidua turpentine [2]. Kolliphor® EL was obtained from Caelo (Hilden, Germany). Acetonitrile (ACN), water, and formic acid (LC -MS grade each) were purchased from Fisher Scientific (Schwerte, Germany). […]\nSM2 Quantification of SH045 by HPLC and tandem mass spectrometric methods (LC-MS/MS) In brief, chromatographic separation was achieved using a Zorbax Eclipse XDB-C8 column (100 × 3.0 mm, 3.5 μm 80 Å, Agilent Technologies) with linear gradient elution using water and ACN, each with 0.1 % formic acid as additive, during a total run time of 20 min. For quantification (+)-larixol was used as IS. […] Freshly prepared calibration samples for SH045 in plasma and tissue comprised eight concentration levels analyzed in duplicates (2, 5, 10, 100, 200, 800, 1200 and 1600 ng/mL). […]"}},
  "data": [
    {"smiles": "C=C[C@@](C)(O)CC[C@H]1C(=C)C[C@H](OC(=O)NC)[C@H]2C(C)(C)CCC[C@]12C", "note": "[SH045, (1S,4S,4aR,8aS)-4-((S)-3-Hydroxy-3-methylpent-4-en-1-yl)-4a,8,8-trimethyl-3-methylenedecahydronaphthalen-1-yl methylcarbamate]", "values": [
      {"measurement": "OAG-induced Ca^2+ entry", "setting": "[1]", "value": "inhibition"},
      {"measurement": "histopathological changes in liver, kidney and lung", "setting": "[2]", "value": "no histopathological changes were observed"}
    ]}
  ]
}
